Several values for one entry are separate records, joined by “and”; a condition that tells them apart may be missing. Equal entries are not always repeated. Entries after “also recorded” stand apart in the source; their conditions may differ. Where two headings read alike, the source gives them in different places.
How the values were obtained:
[1] = biological target: T1, 31-O-desmethylimmunomycin O-methyltransferase (DIMT) (Streptomyces hygroscopicus, UniProt Q9KID5); experiment: S-adenosyl-L-methionine:31-O-desmethylimmunomycin O-methyltransferase (DIMT) assay; type: biochemical, Streptomyces hygroscopicus var. ascomyceticus; conditions: for inhibition of DIMT activity: result in words
T1 construct: about 32 kDa; monomer by gel filtration
T1 sequence (Q9KID5 1-260): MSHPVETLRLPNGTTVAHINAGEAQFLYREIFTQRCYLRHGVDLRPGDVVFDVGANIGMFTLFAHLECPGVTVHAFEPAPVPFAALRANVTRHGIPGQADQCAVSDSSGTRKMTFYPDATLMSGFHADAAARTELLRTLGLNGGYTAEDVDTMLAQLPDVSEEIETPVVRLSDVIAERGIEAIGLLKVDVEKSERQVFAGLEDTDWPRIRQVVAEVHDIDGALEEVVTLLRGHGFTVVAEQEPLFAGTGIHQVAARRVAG
Method: The assay was carried out in 1 ml. mixture containing 0.025 mM 31-desmethylimmunomycin, 1 mM MgSO4 and different quantities of the enzyme source in 50 mM phosphate buffer, pH 7.5. Reaction was initiated by the addition of 1 nmole of ^14 C-SAM (S-adenosyl-L-[methyl-^14 C] methionine with the specific activity of 46 mCi/mmole. Incubation of the complete mixture was carried out at 34° C. for 20 minutes and the reaction was terminated by the addition of ethyl acetate. Product of the reaction was extracted with 2 ml of ethyl acetate and 1 ml of the extract was used for TLC and HPLC analysis. For the analysis of the radioactive reaction product (immunomycin), the ethyl acetate extract was spiked with the standard immunomycin and subjected to the TLC with a plate having plastic support. The plastic sheet was developed in chloroform:methanol (9:1) and area showing standard immunomycin under UV-light was cut and the radioactivity in the cut-strip was measured. The amount of the product formed was calculated from the measured radioactivity. For the HPLC analysis of the product of the enzyme reaction, several enzymatic reaction mixtures were pooled and the extract was subjected to the TLC analysis as above. The area on the silica gel plate showing the band having an Rf value identical with the standard immunomycin was scraped and eluted with ethyl acetate. The ethyl acetate extract was washed with water, dried under nitrogen and the residue was subjected to the HPLC analysis on Partisil 5-ODS-3 column with acetonitrile:water:phosphoric acid (65:35:0.1) as the eluting solvent. One milliliter fractions were collected and a portion of each fraction was examined for the radioactivity.
Examination of the optimal temperature, pH and metal requirement of the DIMT activity was carried out on the enzyme preparation obtained from DEAE-Sepharose column. For kinetic analysis, a preparation which had been purified through a second MonoQ column chromatography was utilized.

[2] = tested on: mouse T lymphocytes stimulated with ionomycin plus PMA; experiment: T-cell proliferation assay (ionomycin plus PMA induced T-cell stimulation); type: cell-based
Method: The principle of this assay, as described in J. Immunology, Vol. 144, pp. 251-258 (1990) by F. Dumont et al, is to measure the proliferation of mouse T lymphocytes stimulated with the combination of ionomycin plus PMA. A positive sample e.g. FK-506, in this assay will inhibit T-cell proliferation, as indicated by reduced tritiated thymidine uptake.
Purified Compound I, as prepared by HPLC above, was dissolved in absolute ethanol at 1 mg/ml.
Spleens from C57B1/6 mice were taken under sterile conditions and gently dissociated in ice-cold RPMI 1640 culture medium (GIBCO, Grand Island, N.Y.) supplemented with 10% heat-inactivated fetal calf serum (GIBCO). Cells were pelleted by centrifugation at 1500 rpm for 8 minutes. Contaminating red cells were removed by treating the pellet with ammonium chloride lysing buffer (GIBCO) for 2 minutes at 4° C. Cold medium was added and cells were again centrifuged at 1500 rpm for 8 minutes. T lymphocytes were then isolated by separation of the cell suspension on nylon wool columns as follows: Nylon wool columns were prepared by packing approximately 4 grams of washed and dried nylon wool into 20 ml plastic syringes. The columns were sterilized by autoclaving at 250° F. for 30 minutes. Nylon wool columns were wetted with warm (37° C.) culture medium and rinsed with the same medium. Washed spleen cells resuspended in warm medium were slowly applied to the nylon wool. The columns were then incubated in an upright position at 37° C. for 1 hour. Non-adherent T lymphocytes were eluted from the columns with warm culture medium and the cell suspensions were spun as above.
Purified T lymphocytes were resuspended at 2.5×10^5 cells/ml in complete culture medium composed of RPMI 1640 medium with 10% heat-inactivated fetal calf serum, […], 1 mM sodium pyruvate, 2×10^-5 M 2-mercaptoethanol and 50 μg/ml gentamycin. Ionomycin was added at 250 ng/ml and PMA at 10 ng/ml. The cell suspension was immediately distributed into 96 well flat-bottom microculture plates (Costar) at 200 μl/well. The control, being the medium without test drug, and various below-indicated dilutions of the sample (above-describedpurified Compound I) to be tested were then added in triplicate wells at 20 μl/well. FR-900506 was used as a standard. The culture plates were then incubated at 37° C. in a humidified atmosphere of 5% CO2 -95% air for 44 hours. The proliferation of T lymphocytes was assessed by measurement of tritiated thymidine incorporation. After 44 hours of culturing, the cells were pulse-labelled with 2 μCi/well of tritiated thymidine (NEN, Cambridge, Mass.). After another 4 hours of incubation, cultures were harvested on glass fiber filters using a multiple sample harvester. Radioactivity of filter discs corresponding to individual wells was measured by standard liquid scintillation counting methods (Betacounter). Mean counts per minute of replicate wells were calculated and the results expressed as percent inhibition of tritiated thymidine uptake (proliferation) as follows: [formula]
1. Mouse T cell cultures were pulsed with ^3 H-thymidine for 4 hours prior to harvesting at 48 hours.

[3] = reputed, EPO Publication No. 0184162; cited from earlier work
[4] = Physical characteristics of Compound I; type: physicochemical; conditions: methanol
[5] = Mus musculus, T-lymphocyte, Example 3, HPLC purified samples, same set of experiments, read-out: IC50, biological activity

SMILES: CC[C@@H]1/C=C(\C)C[C@H](C)C[C@H](OC)[C@H]2O[C@@](O)(C(=O)C(=O)N3CCCC[C@H]3C(=O)O[C@H](/C(C)=C/[C@@H]3CC[C@@H](O)[C@H](O)C3)[C@H](C)[C@@H](O)CC1=O)[C@H](C)C[C@@H]2OC [31-O-desmethylimmunomycin]
- apparent Vmax of DIMT ([1]; 31-O-desmethylimmunomycin variable substrate, 40 uM SAM, Lineweaver-Burk): 45.5 nmol/h/mg

SMILES: N.N.O=S(=O)(O)O [ammonium sulfate]
- inhibition of DIMT activity [1]: inhibited

SMILES: Nc1ncnc2c1ncn2[C@@H]1O[C@H](C[C@@H](N)CC[C@H](N)C(=O)O)[C@@H](O)[C@H]1O [sinefungin]
- inhibition of DIMT activity [1]: major inhibition

SMILES: O=C(O)CN(CCN(CC(=O)O)CC(=O)O)CC(=O)O [EDTA]
- inhibition of DIMT activity [1]: completely inhibited; also recorded: major inhibition

SMILES: C=CC[C@@H]1/C=C(\C)C[C@H](C)C[C@H](OC)[C@H]2O[C@@](O)(C(=O)C(=O)N3CCCC[C@H]3C(=O)O[C@H](/C(C)=C/[C@@H]3CC[C@@H](O)[C@H](OC)C3)[C@H](C)[C@@H](O)CC1=O)[C@H](C)C[C@@H]2OC [FR-900506, reference compound]
- inhibition at 0.01 µg/mL ([2]; Mus musculus, T-lymphocyte, read-out: inhibition of T-cell proliferation by the standard): 99%
- times more effective than cyclosporin [3]: 100 times

SMILES: CC[C@@H]1/C=C(\C)C[C@H](C)C[C@H](OC)[C@H]2O[C@@](O)(C(=O)C(=O)N3CCCC[C@H]3C(=O)O[C@H](/C(C)=C/[C@@H]3CC[C@@H](O)[C@H](OC)C3)[C@H](C)[C@@H](O)CC1=O)[C@H](C)C[C@@H]2OC [FR-900520, 17-Ethyl-1,14-dihydroxy-12-[2-(4-hydroxy-3-methoxycyclohexyl)-1-methylvinyl]-23-25-dimethoxy-13,19,21,27-tetramethyl-11,28-dioxa-4-azatricyclo [22.3.1.0^4,9]octacos-18-ene-2,3,10,16-tetraone]
- IC50 [2, 5]: ~1 nM

SMILES: Nc1ncnc2c1ncn2[C@@H]1O[C@H](CSCC[C@H](N)C(=O)O)[C@@H](O)[C@H]1O [S-adenosyl-homocysteine (SAH), S-adenosyl-homocysteine]
- inhibition of DIMT activity [1]: major inhibition

SMILES: CC[C@@H]1C=C2COC1(O)C[C@H](O)[C@@H](C)[C@@H](/C(C)=C/[C@@H]1CC[C@@H](O)[C@H](O)C1)OC(=O)[C@@H]1CCCCN1C(=O)C(=O)[C@]1(O)O[C@H]([C@@H](OC)C[C@@H](C)C2)[C@@H](OC)C[C@H]1C [Compound I]
- effect of IL-2 on the inhibition of T-cell proliferation ([2]; 50 units/ml recombinant IL-2 added at the initiation of culture): reversed
- inhibition at 0.0025 µM ([2]; Mus musculus, T-lymphocyte, 2.5 nM, splenic T-cells, ionomycin + PMA, 48 hours, read-out: Percent of Inhibition of tritiated thymidine uptake (proliferation)): 0%
- inhibition at 0.0049 µM ([2]; Mus musculus, T-lymphocyte, 4.9 nM, splenic T-cells, ionomycin + PMA, 48 hours, read-out: Percent of Inhibition of tritiated thymidine uptake (proliferation)): 0%
- inhibition at 0.0099 µM ([2]; Mus musculus, T-lymphocyte, 9.9 nM, splenic T-cells, ionomycin + PMA, 48 hours, read-out: Percent of Inhibition of tritiated thymidine uptake (proliferation)): 39%
- inhibition at 0.0197 µM ([2]; Mus musculus, T-lymphocyte, 19.7 nM, splenic T-cells, ionomycin + PMA, 48 hours, read-out: Percent of Inhibition of tritiated thymidine uptake (proliferation)): 65%
- inhibition at 0.0394 µM ([2]; Mus musculus, T-lymphocyte, 39.4 nM, splenic T-cells, ionomycin + PMA, 48 hours, read-out: Percent of Inhibition of tritiated thymidine uptake (proliferation)): 89%
- inhibition at 0.0788 µM ([2]; Mus musculus, T-lymphocyte, 78.8 nM, splenic T-cells, ionomycin + PMA, 48 hours, read-out: Percent of Inhibition of tritiated thymidine uptake (proliferation)): 95%
- inhibition at 0.1576 µM ([2]; Mus musculus, T-lymphocyte, 157.6 nM, splenic T-cells, ionomycin + PMA, 48 hours, read-out: Percent of Inhibition of tritiated thymidine uptake (proliferation)): 98%
- inhibition at 0.3152 µM ([2]; Mus musculus, T-lymphocyte, 315.2 nM, splenic T-cells, ionomycin + PMA, 48 hours, read-out: Percent of Inhibition of tritiated thymidine uptake (proliferation)): 98%
- IC50 [2, 5]: ~11 nM
- IC50 ([2]; Mus musculus, T-lymphocyte, Example 4, table notes, read-out: IC50): 0.0115 µg/mL and 14.5 nM
- IC50 ([2]; Mus musculus, T-lymphocyte, generally in the range, read-out: IC50, general range): 10 to 18 nM
- Solubility [4]: Solubility in methanol

SMILES: CC[C@@H]1C=C2COC1(O)C[C@H](O)[C@@H](C)[C@@H](/C(C)=C/[C@@H]1CC[C@@H](O)[C@H](OC)C1)OC(=O)[C@@H]1CCCCN1C(=O)C(=O)[C@]1(O)O[C@H]([C@@H](OC)C[C@@H](C)C2)[C@@H](OC)C[C@H]1C [Compound II]
- IC50 [2, 5]: ~6 nM
- activity in the T-cell proliferation assay ([2]; result in words): positive inhibition of T-cell activation; also recorded: positive results

— patent publication US5149701A, “C-31 methylated FR-900520 cyclic hemiketal immunosuppressant agents” (Merck & Co., Inc., priority 1991, dated 1992)
